How the values were obtained:
human Src kinase = human Src kinase (Homo sapiens, UniProt P12931); assay: Src Inhibition Assay: Spectrophotometric Assay; format: biochemical; conditions: 25 nM Src, 100 μM ATP, 30° C., coupled NADH spectrophotometric assay; read-out: Ki (inhibit Src)
Method: The compounds are evaluated as inhibitors of human Src kinase using a spectrophotometric assay.
Src Inhibition Assay: Spectrophotometric Assay
An assay buffer solution was prepared which consisted of 25 mM HEPES (pH 7.5), 10 mM MgCl2, 250 μM NADH, 3 mM phosphoenolpyruvate, 60 μg/mL pyruvate kinase, 21 μg/mL lactate dehydrogenase, 113 μM ATP and 28 nM Src. To 60 μL of this solution, in a 96 well plate, was added 2 μL of test compound stock solution in DMSO and the mixture allowed to equilibrate for 10 mins at 30° C. The enzyme reaction was initiated by the addition of 5 μL 10 mg/mL poly Glu, Tyr (4:1) prepared in 25 mM HEPES (pH 7.5). Final assay concentrations of Src and ATP were 25 nM and 100 μM respectively. Initial rate data was determined from the rate of change of absorbance at 340 nm (corresponding to stoichiometric consumption of NADH) using a Molecular Devices Spectramax plate reader (Sunnyvale, Calif.) over 10 mins at 30° C. For each Ki determination 8 data points covering the test compound concentration range of 0-7.5 μM were obtained in duplicate. Ki values were calculated from initial rate data by non-linear regression using the Prism software package (Prism 4.0a, Graphpad Software, San Diego, Calif.).

human Lck kinase = human Lck kinase (Homo sapiens, UniProt P06239); assay: Lck Inhibition Assay: Spectrophotometric Assay; format: biochemical; conditions: 60 nM Lck, 500 μM ATP, 30° C., coupled NADH spectrophotometric assay; read-out: Ki (inhibit Lck)
Method: The compounds are evaluated as inhibitors of human Lck kinase using a spectrophotometric assay.
Lck Inhibition Assay: Spectrophotometric Assay
An assay buffer solution was prepared which consisted of 25 mM HEPES (pH 7.5), 10 mM MgCl2, 250 μM NADH, 3 mM phosphoenolpyruvate, 43 μg/mL pyruvate kinase, 14 μg/mL lactate dehydrogenase, 560 μM ATP and 67 nM Lck. To 60 μL of this solution, in a 96 well plate, was added 2 μL of test compound stock solution in DMSO and the mixture allowed to equilibrate for 10 minutes at 30° C. The enzyme reaction was initiated by the addition of 5 μL 15 mg/mL poly Glu, Tyr (4:1) prepared in 25 mM HEPES (pH 7.5). Final assay concentrations of Lck and ATP are 60 nM and 500 μM respectively. Initial rate data was determined from the rate of change of absorbance at 340 nm (corresponding to stoichiometric consumption of NADH) using a Molecular Devices Spectramax plate reader (Sunnyvale, Calif.) over 10 min at 30° C. For each Ki determination 8 data points covering the test compound compound concentration range of 0-7.5 μM are obtained in duplicate. Ki values are calculated from initial rate data by non-linear regression using the Prism software package (Prism 4.0a, Graphpad Software, San Diego, Calif.).

human Lck kinase, sequence (P06239 whole entry): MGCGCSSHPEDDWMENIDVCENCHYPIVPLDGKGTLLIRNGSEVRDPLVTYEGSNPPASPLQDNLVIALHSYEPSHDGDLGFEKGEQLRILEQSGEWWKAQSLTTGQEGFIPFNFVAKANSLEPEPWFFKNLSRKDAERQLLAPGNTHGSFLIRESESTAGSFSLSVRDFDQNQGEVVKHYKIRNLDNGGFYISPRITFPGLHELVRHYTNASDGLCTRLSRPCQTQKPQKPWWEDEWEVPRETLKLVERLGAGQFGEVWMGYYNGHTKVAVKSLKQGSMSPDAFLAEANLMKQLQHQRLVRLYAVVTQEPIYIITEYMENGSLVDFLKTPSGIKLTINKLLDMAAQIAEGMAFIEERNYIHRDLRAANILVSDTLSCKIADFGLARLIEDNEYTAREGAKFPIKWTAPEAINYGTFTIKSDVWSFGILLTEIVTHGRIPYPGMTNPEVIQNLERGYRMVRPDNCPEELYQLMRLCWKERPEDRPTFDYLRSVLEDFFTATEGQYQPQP
human Src kinase, sequence (P12931 whole entry): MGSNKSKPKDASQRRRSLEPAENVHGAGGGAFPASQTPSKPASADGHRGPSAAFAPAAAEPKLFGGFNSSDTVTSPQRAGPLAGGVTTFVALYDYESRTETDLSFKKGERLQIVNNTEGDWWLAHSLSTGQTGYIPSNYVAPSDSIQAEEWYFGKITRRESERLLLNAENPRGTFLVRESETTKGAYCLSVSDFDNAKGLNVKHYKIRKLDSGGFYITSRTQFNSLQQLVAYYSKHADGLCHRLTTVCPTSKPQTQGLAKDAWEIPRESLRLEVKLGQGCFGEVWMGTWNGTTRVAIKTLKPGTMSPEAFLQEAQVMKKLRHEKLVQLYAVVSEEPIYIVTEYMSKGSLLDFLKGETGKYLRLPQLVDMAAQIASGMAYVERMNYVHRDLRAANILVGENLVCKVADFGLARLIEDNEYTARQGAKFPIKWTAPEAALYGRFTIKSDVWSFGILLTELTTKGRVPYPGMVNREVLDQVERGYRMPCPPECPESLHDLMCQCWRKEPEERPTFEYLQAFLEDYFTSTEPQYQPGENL

Ki (human Src kinase): < 1000 nM
Ki (human Lck kinase): < 1000 nM
Compound: Nc1nccc2c1c(-c1ccc(Oc3ccccc3)cc1)cn2C1CCCC1 [Compound I-1, 1-Cyclopentyl-3-(4-phenoxyphenyl)-1H-pyrrolo[3,2-c]pyridin-4-amine]

— patent US7659283B2, “Pyrrolo [3,2-C] pyridines useful as inhibitors of protein kinases” (Vertex Pharmaceuticals Incorporated, priority 2006, dated 2010)
